Laboratory results reported in ChEMBL document CHEMBL1201862, “PubChem BioAssay data set” (2004).
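Protocol summary: plate cells (96-well), add compound at 5 concentrations, incubate 48 h, interpolate endpoints linearly. The concentration for 50% growth inhibition is given as GI50.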 Calls of active or inactive are those of the source. Rule as the data show it: active = GI50 up to about 1.1 µM and inactive = higher.

How the values were obtained:
Assay in all cases: NCI-60 cell line screen, 48 h
HCT-15 = tested on: HCT-15
HL-60 = tested on: HL-60
KM12 = tested on: KM12
M14 = tested on: M14
NCI-H460 = tested on: NCI-H460
OVCAR-3 = tested on: OVCAR-3
OVCAR-4 = tested on: OVCAR-4
OVCAR-8 = tested on: OVCAR-8
SF-539 = tested on: SF-539
SK-MEL-28 = tested on: SK-MEL-28
SN12C = tested on: SN12C
SNB-75 = tested on: SNB-75
TK-10 = tested on: TK-10
U-251 = tested on: U-251
UO-31 = tested on: UO-31
SK-MEL-2 = tested on: SK-MEL-2
SW-620 = tested on: SW-620

| Structure (SMILES) | GI50 (HCT-15) [µM] | GI50 (HL-60) | GI50 (KM12) | GI50 (M14) | GI50 (NCI-H460) | GI50 (OVCAR-3) | GI50 (OVCAR-4) | GI50 (OVCAR-8) | GI50 (SF-539) | GI50 (SK-MEL-28) | GI50 (SN12C) | GI50 (SNB-75) | GI50 (TK-10) | GI50 (U-251) | GI50 (UO-31) | GI50 (SK-MEL-2) | GI50 (SW-620) |
| --- | --- | --- | --- | --- | --- | --- | --- | --- | --- | --- | --- | --- | --- | --- | --- | --- | --- |
| Cn1cc/c(=N\N=c2/ccn(C)c3ccccc23)c2ccccc21 | 15.8 | 5.78 µM (inactive) | 13 µM (inactive) | 16.9 µM (inactive) | 12.1 µM (inactive) | 11.7 µM (inactive) | 12.7 µM (inactive) | 14.9 µM (inactive) | 15.9 µM (inactive) | 15.2 µM (inactive) | 16.9 µM (inactive) | 24.1 µM (inactive) | 19.1 µM (inactive) | 15.7 µM (inactive) | 13.2 µM (inactive) | – | – |
| CCOC(=O)C(C)c1c(C(=O)c2ccc(C)nc2)c2ccccc2n1C (stereo not drawn) | > 100 | > 100 µM (inactive) | > 100 µM (inactive) | > 100 µM (inactive) | > 100 µM (inactive) | > 100 µM (inactive) | > 100 µM (inactive) | > 100 µM (inactive) | – | > 100 µM (inactive) | > 100 µM (inactive) | 33.3 µM (inactive) | > 100 µM (inactive) | – | – | 82.8 µM (inactive) | > 100 µM (inactive) |
| Cc1nc([N+](=O)[O-])cn1CC(=N)N | > 100 | > 100 µM (inactive) | – | > 100 µM (inactive) | > 100 µM (inactive) | > 100 µM (inactive) | > 100 µM (inactive) | > 100 µM (inactive) | > 100 µM (inactive) | > 100 µM (inactive) | > 100 µM (inactive) | 20.8 µM (inactive) | > 100 µM (inactive) | > 100 µM (inactive) | > 100 µM (inactive) | > 100 µM (inactive) | > 100 µM (inactive) |
| Cc1cc(N(CCC#N)CCC#N)ccc1/N=N/c1ccc(S(N)(=O)=O)cc1 | > 100 | > 100 µM (inactive) | > 100 µM (inactive) | > 100 µM (inactive) | – | > 100 µM (inactive) | > 100 µM (inactive) | > 100 µM (inactive) | > 100 µM (inactive) | > 100 µM (inactive) | > 100 µM (inactive) | > 100 µM (inactive) | > 100 µM (inactive) | > 100 µM (inactive) | 85.5 µM (inactive) | > 100 µM (inactive) | > 100 µM (inactive) |
| CC(=O)N1[C@H](C(=O)O)CS[C@H]1c1ccncc1 | > 100 | > 100 µM (inactive) | > 100 µM (inactive) | > 100 µM (inactive) | > 100 µM (inactive) | > 100 µM (inactive) | > 100 µM (inactive) | 32.7 µM (inactive) | > 100 µM (inactive) | > 100 µM (inactive) | > 100 µM (inactive) | > 100 µM (inactive) | > 100 µM (inactive) | – | > 100 µM (inactive) | – | > 100 µM (inactive) |
| CN(C)/N=C(/c1nc2ccc([N+](=O)[O-])cc2nc1O)C(O)c1ccco1 (stereo not drawn) | 26.2 | > 100 µM (inactive) | 34.8 µM (inactive) | > 100 µM (inactive) | > 100 µM (inactive) | > 100 µM (inactive) | > 100 µM (inactive) | > 100 µM (inactive) | > 100 µM (inactive) | > 100 µM (inactive) | > 100 µM (inactive) | > 100 µM (inactive) | – | > 100 µM (inactive) | 2.51 µM (inactive) | – | 92.3 µM (inactive) |
| C#C[C@]1(O)CCC2C3CCc4cc(Oc5nc(F)nc(-c6c7cc8ccccc8cc7c7n6CCS7)n5)ccc4C3CCC21C (stereo partly drawn) | – | 36.7 µM (inactive) | 33.1 µM (inactive) | 29.2 µM (inactive) | 33.1 µM (inactive) | 44.7 µM (inactive) | – | 53.8 µM (inactive) | 30.1 µM (inactive) | 48.9 µM (inactive) | 41.5 µM (inactive) | 32.9 µM (inactive) | 71.3 µM (inactive) | 39.4 µM (inactive) | > 100 µM (inactive) | 28.8 µM (inactive) | 44.3 µM (inactive) |
| CSC(SC)=C1Sc2cccc(Cl)c2S1 | 48.3 | 18.3 µM (inactive) | 83 µM (inactive) | 82 µM (inactive) | > 100 µM (inactive) | – | 68.4 µM (inactive) | 92.5 µM (inactive) | 74.6 µM (inactive) | > 100 µM (inactive) | > 100 µM (inactive) | 65.6 µM (inactive) | 76 µM (inactive) | 65.2 µM (inactive) | 52.5 µM (inactive) | 17.9 µM (inactive) | 39 µM (inactive) |
| COc1cc2c3c(c1OC)/C(=N/OS(=O)(=O)c1ccc(C)cc1)CC3N(S(=O)(=O)c1ccc(C)cc1)CC2 (stereo not drawn) | – | > 100 µM (inactive) | > 100 µM (inactive) | > 100 µM (inactive) | > 100 µM (inactive) | > 100 µM (inactive) | > 100 µM (inactive) | 93.3 µM (inactive) | > 100 µM (inactive) | > 100 µM (inactive) | > 100 µM (inactive) | 70.5 µM (inactive) | > 100 µM (inactive) | > 100 µM (inactive) | > 100 µM (inactive) | – | > 100 µM (inactive) |
| CN(C)C=[N+]=[N-] | > 100 | > 100 µM (inactive) | > 100 µM (inactive) | > 100 µM (inactive) | > 100 µM (inactive) | > 100 µM (inactive) | > 100 µM (inactive) | > 100 µM (inactive) | > 100 µM (inactive) | – | > 100 µM (inactive) | > 100 µM (inactive) | > 100 µM (inactive) | > 100 µM (inactive) | > 100 µM (inactive) | > 100 µM (inactive) | > 100 µM (inactive) |
| CCOC(=O)Cc1ccc2c(c1O)C(=O)c1c(ccc(CC(=O)OCC)c1O)C2=O | – | > 100 µM (inactive) | > 100 µM (inactive) | > 100 µM (inactive) | – | 47.8 µM (inactive) | – | > 100 µM (inactive) | > 100 µM (inactive) | 96.2 µM (inactive) | > 100 µM (inactive) | > 100 µM (inactive) | 31.9 µM (inactive) | 83.8 µM (inactive) | > 100 µM (inactive) | > 100 µM (inactive) | > 100 µM (inactive) |
| S=P1(c2ccccc2)Nc2ccc(Cl)cc2N1 (stereo not drawn) | 58.5 | 7.48 µM (inactive) | 88.9 µM (inactive) | 18.5 µM (inactive) | > 100 µM (inactive) | > 100 µM (inactive) | 6.49 µM (inactive) | – | > 100 µM (inactive) | > 100 µM (inactive) | – | – | > 100 µM (inactive) | > 100 µM (inactive) | 56.4 µM (inactive) | > 100 µM (inactive) | > 100 µM (inactive) |
| COc1ccccc1NC(=O)CC(=O)N1N=C(C)C(/N=N/c2ccc(S(N)(=O)=O)cc2)C1=O (stereo not drawn) | > 100 | – | > 100 µM (inactive) | > 100 µM (inactive) | > 100 µM (inactive) | > 100 µM (inactive) | > 100 µM (inactive) | > 100 µM (inactive) | > 100 µM (inactive) | > 100 µM (inactive) | > 100 µM (inactive) | > 100 µM (inactive) | > 100 µM (inactive) | > 100 µM (inactive) | > 100 µM (inactive) | > 100 µM (inactive) | > 100 µM (inactive) |
| Cc1[nH]c2ccccc2c1C1CC(=O)NC1=O (stereo not drawn) | > 100 | > 100 µM (inactive) | > 100 µM (inactive) | > 100 µM (inactive) | > 100 µM (inactive) | > 100 µM (inactive) | > 100 µM (inactive) | > 100 µM (inactive) | > 100 µM (inactive) | > 100 µM (inactive) | – | > 100 µM (inactive) | > 100 µM (inactive) | > 100 µM (inactive) | > 100 µM (inactive) | > 100 µM (inactive) | > 100 µM (inactive) |
| O=C(Cl)c1cc([N+](=O)[O-])cc([N+](=O)[O-])c1 | > 100 | > 100 µM (inactive) | > 100 µM (inactive) | > 100 µM (inactive) | > 100 µM (inactive) | – | > 100 µM (inactive) | – | > 100 µM (inactive) | > 100 µM (inactive) | – | > 100 µM (inactive) | > 100 µM (inactive) | > 100 µM (inactive) | > 100 µM (inactive) | > 100 µM (inactive) | > 100 µM (inactive) |
| COc1cccc(NC(=O)CC(=O)N2N=C(N3c4ccccc4Sc4ccccc43)CC2c2ccccc2)c1 (stereo not drawn) | > 100 | – | > 100 µM (inactive) | > 100 µM (inactive) | > 100 µM (inactive) | > 100 µM (inactive) | > 100 µM (inactive) | > 100 µM (inactive) | > 100 µM (inactive) | > 100 µM (inactive) | > 100 µM (inactive) | > 100 µM (inactive) | > 100 µM (inactive) | > 100 µM (inactive) | > 100 µM (inactive) | – | > 100 µM (inactive) |
| O=C(Nc1cc([N+](=O)[O-])cc([N+](=O)[O-])c1)OC1C2CCC1C1OC1C2 (stereo not drawn) | > 50 | 32.1 µM (inactive) | 29.1 µM (inactive) | > 50 µM (inactive) | > 50 µM (inactive) | 29.6 µM (inactive) | > 50 µM (inactive) | > 50 µM (inactive) | > 50 µM (inactive) | > 50 µM (inactive) | – | 23.7 µM (inactive) | > 50 µM (inactive) | > 50 µM (inactive) | 19.9 µM (inactive) | > 50 µM (inactive) | > 50 µM (inactive) |
| CC(=O)[O-].[O-]c1c(Cl)cc(Cl)cc1/C=N/Nc1ccccn1.[Zn+2] | 0.403 | 0.234 µM (active) | 6.3 µM (inactive) | 0.387 µM (active) | 1.38 µM (inactive) | 0.268 µM (active) | – | 0.237 µM (active) | 1.26 µM (inactive) | 1.57 µM (inactive) | 5.82 µM (inactive) | 4.99 µM (inactive) | – | 3.12 µM (inactive) | 0.31 µM (active) | 0.0601 µM (active) | 1.74 µM (inactive) |
